{"source": "patent US20260183306A1", "about": "“Methods for Treating Respiratory Diseases Characterized by Mucus Hypersecretion” (The Board of Trustees of the Leland Stanford Junior …, priority 2022, published 2026)", "tested_on": "primary human nasal epithelial cells (HNECs)", "assay": "Multiciliated cell (MCC) formation in HNEC air-liquid interface (ALI) cultures", "format": "cell-based", "settings": "for multiciliated cell formation by apical versus basal application: ALI+0 to +21d from either the apical or basal surface; for ratio MCC number/total luminal cells: labeled at ALI+21 d, vs untreated, p<0.01 by ANOVA; for number of multiciliated cells, apical only treatment of submerged cultures: vs untreated submerged cells; for multiciliated cell numbers, treatment during differentiation: differentiation only (ALI+0 to +21d) and continuous (preALI+ALI) treatments; for multiciliated cell formation in mature cultures: mature (ALI+30d) cultures treated one (ALI+30 to +37d) or two weeks (ALI+30 to +44d); for multiciliated cell formation, treatment during proliferation only: pre-ALI only (ALI-5 to -1d); for multiciliated cell formation, treatment during proliferation only / multiciliated cell formation at the low concentration: labeled ALI+21d; for effect on Notch signaling and differentiation towards MCCs: administered in the nanomolar range to human nasal epithelial cells; for toxicity / disruption of epithelial structure at high concentration: micromolar doses (10 μM for LY450139); for multiciliated cell formation at the low concentration: low dose (based on IC50 for Notch inhibition)", "procedure": "Air-Liquid Interface (ALI) cultures were prepared as described in Vladar E K, Nayak J V, Milla C E, Axelrod J D. Airway epithelial homeostasis and planar cell polarity signaling depend on multiciliated cell differentiation. JCI Insight. 2016; 1(13); e88027. Human nasal epithelial cells (HNECs) were generated from human sinonasal epithelial brushings or from tissue obtained from patients undergoing endoscopic sinus surgery at Stanford Hospital and cultured as described in Vladar et al.\nCultures were treated with varying doses of semagacestat. DAFT (Abcam) was used ([…]) as a positive cone ml for GSI activity. Cultures were labeled at ALI+21 d with anti-acetylated α-tubulin (green) and ECAD (red) antibodies to mark cilia and epithelial junctions. […] The ratio was defined as MCC number/total luminal cells. Counting was done on one representative image from 5 culture replicates from a single donor.\nPrimary human airway epithelial cells were treated with DAPT and LY45139: i) during proliferation only (ALI-5 to -Id), ii) during differentiation only (ALI+0 to +21d) or iii) continuously during the entire culture duration, followed by labeling at ALI+21d with anti-acetylated α-Tubulin (green) and ECAD (red) antibodies.\nMature (ALI+30d) primary human airway epithelial cells were treated with DAFT and semagacestat for one (ALI+30 to +37d) or two weeks (ALI+30 to +44d), then labeled with anti-acetylated α-Tubulin (green) and ECAD (red) antibodies.\nPrimary human airway epithelial cells were treated with DAFT and LY45139 during differentiation only (ALI+0 to +21d) from either the apical or basal surface, then labeled at ALI+21d with anti-acetylated α-Tubulin (green) and ECAD (red) antibodies. […] Apical treatment eliminates the air-liquid interface, which results in the poor epithelial structure and multiciliated cell differentiation in the untreated cultures, which is partially rescued by GSI treatment.\nWhile this effect may be beneficial as a therapeutic, DAPT is not suitable for human use. It was sought to identify GSIs for potential therapeutic application among small molecules previously used in clinical trials that were developed to have acceptable drug-like properties. […] Healthy human nasal epithelial cell (HNEC) primary cultures were grown at air-liquid interface (ALI) in homemade culture medium to support the consistent differentiation of multiciliated cells as approximately 45-55% of the luminal cells, similar to the in vivo airways (24) (FIG. 35A, 40A). The use of homemade culture medium is important, as cultures grown in commercially available Pneumacult medium often contain 85-95% multiciliated cells at the luminal surface (FIG. S4A). HNECs were treated with a low and high dose (based on IC50 for Notch inhibition, Selleckchem) of each compound during the entire 21 days of ALI differentiation (ALI+0 to 21d). The fraction of mature multiciliated cells was quantitated using wholemount ac. α-Tubulin antibody (marks ciliary axonemes) labeling. […] DMSO control treatment had no effect on multiciliated cell number (FIG. 40A).\nHNEC primary culture comprises an initial proliferative phase when basal stem cells establish the epithelial layer under submerged culture conditions (preALI), followed by differentiation induced, in part, by lifting to ALI (30). Thus, HNECs can be used to test GSI response in both regenerative and homeostatic settings. Notch signaling between luminal cells controls epithelial cell fate, but it is also active in basal cells and regulates their differentiation and survival (14,18,31). Thus, it was asked if the GSIs LY450139 or DAFT during the proliferative preALI phase only or during the entire culture duration (proliferative+differentiation; preALI+ALI) can induce multiciliated cell formation and if GSI treatment during stem cell proliferation has detrimental effects. PreALI, GSIs was added to both the apical and basal media, and during ALI, cultures were only treated basally. […]", "key": {"[1]": {"settings": "ALI+0 to +21d, listed as LY45139"}, "[2]": {"settings": "ALI+0 to +21d, listed as LY450139"}, "[3]": {"settings": "treated during differentiation ALI+0 to +21d"}}, "note": "“Also recorded” adds a separate entry of the source."}
{"smiles": "C[C@H](NC(=O)Cc1cc(F)cc(F)c1)C(=O)NC(C(=O)OC(C)(C)C)c1ccccc1", "note": "(stereo partly drawn) [DAPT]", "values": [{"measurement": "multiciliated cell formation by apical versus basal application", "setting": "listed as DAFT", "value": "induces ciliated cell formation via both apical and basal application; also recorded: induces multiciliated cell formation via both apical and basal application"}, {"measurement": "ratio MCC number/total luminal cells", "setting": "I μM DAPT", "value": "significant increases"}, {"measurement": "number of multiciliated cells, apical only treatment of submerged cultures", "value": "approximately double the number of multiciliated cells"}, {"measurement": "multiciliated cell numbers, treatment during differentiation", "value": "increased MCC cell numbers; also recorded: increased multiciliated cell numbers"}, {"measurement": "multiciliated cell numbers, treatment during differentiation", "setting": "listed as DAFT", "value": "significant increase in the proportion of multiciliated cells"}, {"measurement": "multiciliated cell formation in mature cultures", "value": "induces the formation of additional multiciliated cells in mature cultures"}, {"measurement": "multiciliated cell formation in mature cultures", "setting": "listed as DAFT", "value": "induces the formation of additional multiciliated cells in mature cultures; also recorded: robust induction of multiciliated cell formation"}, {"measurement": "multiciliated cell formation, treatment during proliferation only", "value": "had no effect on differentiation; also recorded: no detrimental effect on multiciliated cells or overall epithelial structure"}, {"measurement": "multiciliated cell formation, treatment during proliferation only", "setting": "listed as DAFT", "value": "not sufficient to induce extra multiciliated cell formation"}]}
{"smiles": "CC(C)[C@H](O)C(=O)N[C@@H](C)C(=O)N[C@@H]1C(=O)N(C)CCc2ccccc21", "note": "[semagacestat, (2S)-2-hydroxy-3-methyl-N-[(1 S)-1-methyl-2-oxo-2-[[(1 S)-2,3,4,5-tetrahydro-3-methyl-2-oxo-1H-3-benzazepin-1-yl]amino]ethyl]-butamide]", "values": [{"measurement": "proportion of multiciliated cells", "setting": "10 μM, ALI+0 to +21d", "value": "significant decrease"}, {"measurement": "proportion of multiciliated cells", "setting": "15.625 to 500 nM, ALI+0 to +21d", "value": "significant increase"}, {"measurement": "multiciliated cell formation by apical versus basal application", "setting": "listed as LY45139", "value": "induces ciliated cell formation via both apical and basal application"}, {"measurement": "multiciliated cell formation by apical versus basal application", "setting": "listed as LY450139", "value": "just as efficacious as basal treatment; also recorded: induces multiciliated cell formation via both apical and basal application"}, {"measurement": "effect on Notch signaling and differentiation towards MCCs", "value": "effective in blocking Notch signaling, driving differentiation towards MCCs"}, {"measurement": "number of multiciliated cells, apical only treatment of submerged cultures", "value": "approximately double the number of multiciliated cells"}, {"measurement": "multiciliated cell numbers, treatment during differentiation", "setting": "listed as LY45139", "value": "increased MCC cell numbers"}, {"measurement": "multiciliated cell numbers, treatment during differentiation", "setting": "listed as LY450139", "value": "significant increase in the proportion of multiciliated cells; also recorded: increased multiciliated cell numbers"}, {"measurement": "toxicity / disruption of epithelial structure at high concentration", "setting": "ALI+0 to +21d", "value": "Toxicity is observed at micromolar doses"}, {"measurement": "toxicity / disruption of epithelial structure at high concentration", "setting": "[1]", "value": "disrupted epithelial structure"}, {"measurement": "toxicity / disruption of epithelial structure at high concentration", "setting": "[2]", "value": "disrupted the epithelial junctions; also recorded: disrupted epithelial structure"}, {"measurement": "multiciliated cell formation at the low concentration", "setting": "[1]", "value": "induced multiciliated cell formation"}, {"measurement": "multiciliated cell formation at the low concentration", "setting": "[2]", "value": "able to induce the formation of extra multiciliated cells; also recorded: induced multiciliated cell formation"}, {"measurement": "dose dependence of multiciliated cell numbers", "setting": "lower (nM) concentrations, ALI+0 to +21d, listed as LY450139", "value": "increases the proportion of multiciliated cells in a dose dependent manner; also recorded: dose dependent increase in multiciliated cell numbers"}, {"measurement": "multiciliated cell formation in mature cultures", "value": "induces the formation of additional multiciliated cells in mature cultures"}, {"measurement": "multiciliated cell formation in mature cultures", "setting": "listed as LY450139", "value": "robust induction of multiciliated cell formation; also recorded: able to drive multiciliated cell formation in differentiating as well as mature, homeostatic airway epithelial cultures; also recorded: induces the formation of additional multiciliated cells in mature cultures"}, {"measurement": "multiciliated cell formation, treatment during proliferation only", "setting": "listed as LY45139", "value": "had no effect on differentiation"}, {"measurement": "multiciliated cell formation, treatment during proliferation only", "setting": "listed as LY450139", "value": "not sufficient to induce extra multiciliated cell formation; also recorded: no observable effect on subsequent differentiation; also recorded: no detrimental effect on multiciliated cells or overall epithelial structure"}, {"measurement": "ratio MCC number/total luminal cells", "setting": "semagacestat 500 nM to 31.25 nM", "value": "significant increases"}, {"measurement": "concentration at which the percentage of MCCs reaches its maximum / begins to plateau", "setting": "[3]", "value": "around 125 nM"}, {"measurement": "lowest concentration able to effectively increase the proportion of multiciliated cells", "setting": "[3]", "value": 31.25, "unit": "nM"}]}
{"smiles": "O=C(O)CC[C@H]1CC[C@@](c2cc(F)ccc2F)(S(=O)(=O)c2ccc(Cl)cc2)CC1", "note": "[MK-0752]", "values": [{"measurement": "effect on Notch signaling and differentiation towards MCCs", "value": "effective in blocking Notch signaling, driving differentiation towards MCCs"}, {"measurement": "toxicity / disruption of epithelial structure at high concentration", "setting": "ALI+0 to +21d", "value": "disrupted epithelial structure"}, {"measurement": "multiciliated cell formation at the low concentration", "setting": "ALI+0 to +21d", "value": "induced multiciliated cell formation; also recorded: able to induce the formation of extra multiciliated cells"}]}
